According to US7754443B2, “Serum replacement for thyroid hormone-responsive cell culture” (University of Victoria Innovation and Development …, priority 2005, dated 2010):

Experiments:
[1] = system: TH receptor β (TRβ) gene expression; assay: TRβ transcript levels by RT-QPCR in XLA cells cultured in serum-containing medium; type: cell-based, Xenopus laevis; details: 10 nM T3, 2 days, relative to uninduced control
Experimental: The indicated cell types were plated at a density of 2×10^4 cells/cm^2 and cultured in the presence of medium containing either 10% charcoal stripped fetal calf serum (stripped) or Rana tadpole serum (RTS). […] All values were normalized to an invariant L8 ribosomal protein transcript. A) Relative expression levels of the control cells. B) Fold change of the TRβ transcript levels relative to the control, uninduced cells in accordance with an embodiment. […] The expression of TRβ and GH gene transcripts was analyzed using a MX4000 real-time quantitative polymerase chain reaction system (Stratagene, La Jolla, Calif., USA) as described previously (Crump, Werry et al. 2002) using gene specific primers (for TRβ: UP primer 5'-[NT]; DOWN primer 5'-[NT]; for GH: UP primer 5'-[NT]; DOWN primer 5'-[NT] The annealing temperature was 55° C. A standard curve for each primer pair was generated using the appropriate quantified plasmid DNA containing the target gene sequence. Quadruplicate reactions were performed for each sample and data were averaged and normalized to the expression of the control gene encoding the ribosomal protein L8. […] Total RNA was isolated from these cells and analyzed for the levels of the TRβ gene by reverse transcription quantitative real time polymerase chain reaction (RT-QPCR). […]

[2] = system: TH receptor β (TRβ) gene expression; assay: TRβ transcript levels by RT-QPCR in XTC-2 cells cultured in serum-containing medium; type: cell-based, Xenopus laevis
Experimental: The indicated cell types were plated at a density of 2×10^4 cells/cm^2 and cultured in the presence of medium containing either 10% charcoal stripped fetal calf serum (stripped) or Rana tadpole serum (RTS). […] All values were normalized to an invariant L8 ribosomal protein transcript. A) Relative expression levels of the control cells. B) Fold change of the TRβ transcript levels relative to the control, uninduced cells in accordance with an embodiment. […] XTC cells were plated in triplicate at a density of 2×10^4 cells/cm^2 and cultured in the presence of medium containing either 10% charcoal stripped fetal calf serum (CS) or Rana tadpole serum from different premetamorphic (VI, XII) or prometamorphic (XV, XVIII) stages (Taylor and Kollros, 1946). […] All values were normalized to an invariant L8 ribosomal protein transcript. The relative expression levels are indicated with vehicle control (white bars) and T3-exposed (black bars) cells in accordance with an embodiment. FIG. 3 is evidence that serum from other species is suitable for use in thyroid hormone induction experiments. XTC cells were plated at a density of 2×10^4 cells/cm^2 and cultured in the presence of medium containing either 10% charcoal stripped fetal calf serum (stripped), serum from salmon Parr (salmon), or neotenic salamanders (salamander). […] All values were normalized to an invariant L8 ribosomal protein transcript. […]

rat pituitary GH3 cells = assay: TH-induced proliferation of GH3 cells, hemocytometer cell count; type: cell-based; details: 10 nM T3, all three sera, relative to vehicle controls
Experimental: FIG. 5 is evidence that serum from other species is suitable for use in thyroid hormone induction experiments with mammalian cells. 3.5×10^4 rat pituitary GH3 cells were plated in duplicate at a density of 2×10^4 cells/cm^2 and cultured in the presence of medium containing either 10% charcoal stripped fetal calf serum (stripped), serum from salmon parr (salmon), or Rana catesbeiana tadpoles (RTS). After 2 days, 10 nM T3 or vehicle control was added and the cells were counted 5 days later after trypsinization on a hemocytometer. The total cell numbers are indicated with vehicle control (white bars) and T3-exposed (black bars) cells in accordance with an embodiment.
Two frog cell lines, XTC-2 cells (Machuca and Tata 1992) and XLA cells (Kanamori and Brown 1993) were obtained from J. Tata and D. Brown, respectively and grown in 70% Liebovitz medium supplemented with 10% bovine growth serum, 100 µg/ml gentamycin sulfate and 10 mM Hepes, pH 7.5 (GIBCO/Invitrogen, Grand Island, N.Y.). These cells were grown at 25° C. in air. The rat pituitary tumor GH3 cell line was obtained from R. T. Zoeller and maintained in Kaighn's modification of Ham's F 12 medium with 2 mM glutamine, 1.5 g/L sodium bicarbonate, 10% fetal bovine serum, 1,000 U/ml penicillin, and 1 mg/ml streptomycin at 37° C. in 5% CO2. […]

[3] = system: growth hormone (GH) mRNA transcript; assay: GH transcript levels by RT-QPCR in GH3 cells cultured in serum-containing medium; type: cell-based, rat; details: 10 nM T3, 2 days, relative to uninduced control
Experimental: The indicated cell types were plated at a density of 2×10^4 cells/cm^2 and cultured in the presence of medium containing either 10% charcoal stripped fetal calf serum (stripped) or Rana tadpole serum (RTS). […] All values were normalized to an invariant L8 ribosomal protein transcript. A) Relative expression levels of the control cells. B) Fold change of the GH transcript levels relative to the control, uninduced cells in accordance with an embodiment. […] The expression of TRβ and GH gene transcripts was analyzed using a MX4000 real-time quantitative polymerase chain reaction system (Stratagene, La Jolla, Calif., USA) as described previously (Crump, Werry et al. 2002) using gene specific primers (for TRβ: UP primer 5'-[NT]; DOWN primer 5'-[NT]; for GH: UP primer 5'-[NT]; DOWN primer 5'-[NT] The annealing temperature was 55° C. A standard curve for each primer pair was generated using the appropriate quantified plasmid DNA containing the target gene sequence. Quadruplicate reactions were performed for each sample and data were averaged and normalized to the expression of the control gene encoding the ribosomal protein L8.

N[C@@H](Cc1cc(I)c(Oc2ccc(O)c(I)c2)c(I)c1)C(=O)O [T3, 3,5,3′-triiodothyronine]
TRβ mRNA levels on exposure to T3 [1]: increase
TRβ levels after addition of T3 ([2]; XTC cells, 10 nM T3, in charcoal stripped serum or RTS of stages VI, XII, XV, XVIII (all cases)): robust elevation
TRβ mRNA levels on exposure to T3 ([2]; XTC-2 cells, 10 nM T3, 2 days, relative to uninduced control): increase
GH3 proliferation on exposure to T3 (rat pituitary GH3 cells): increased proliferation
GH mRNA levels on exposure to T3 [3]: increase
